According to ChEMBL document CHEMBL1201862, “PubChem BioAssay data set” (2004):
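Protocol summary: plate cells (96-well), add compound at 5 concentrations, incubate 48 h, interpolate endpoints linearly. GI50 marks 50% less growth.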 Activity calls are given as the source filed them. Rule as the data show it: active = GI50 up to about 1.1 µM and inactive = higher.

Columns and labels:
Assay in all cases: NCI-60 cell line screen, 48 h
MDA-N = test system: MDA-N
SNB-75 = test system: SNB-75
UACC-257 = test system: UACC-257
786-0 = test system: 786-0
UACC-62 = test system: UACC-62
BT-549 = test system: BT-549
T47D = test system: T47D
COLO 205 = test system: COLO 205
SK-MEL-5 = test system: SK-MEL-5
HOP-62 = test system: HOP-62
MCF7 = test system: MCF7
LOX IMVI = test system: LOX IMVI
SN12C = test system: SN12C
MDA-MB-231 = test system: MDA-MB-231
CAKI-1 = test system: CAKI-1
SK-MEL-28 = test system: SK-MEL-28
HCT-116 = test system: HCT-116
OVCAR-3 = test system: OVCAR-3
NCI-H522 = test system: NCI-H522
SF-295 = test system: SF-295
HT-29 = test system: HT-29
NCI-H23 = test system: NCI-H23
Malme-3M = test system: Malme-3M
M14 = test system: M14
A549 = test system: A549
SW-620 = test system: SW-620
CCRF-CEM = test system: CCRF-CEM
UO-31 = test system: UO-31
MDA-MB-435 = test system: MDA-MB-435
OVCAR-4 = test system: OVCAR-4
SR = test system: SR
HCC 2998 = test system: HCC 2998
EKVX = test system: EKVX
SF-268 = test system: SF-268
SK-MEL-2 = test system: SK-MEL-2
KM12 = test system: KM12
PC-3 = test system: PC-3
U-251 = test system: U-251
NCI-H226 = test system: NCI-H226
OVCAR-5 = test system: OVCAR-5
HL-60 = test system: HL-60
TK-10 = test system: TK-10
IGROV-1 = test system: IGROV-1
NCI/ADR-RES = test system: NCI/ADR-RES
RXF 393 = test system: RXF 393
SNB-19 = test system: SNB-19
ACHN = test system: ACHN
HOP-92 = test system: HOP-92
SK-OV-3 = test system: SK-OV-3
OVCAR-8 = test system: OVCAR-8
HCT-15 = test system: HCT-15
RPMI-8226 = test system: RPMI-8226
DU-145 = test system: DU-145
NCI-H460 = test system: NCI-H460
Hs-578T = test system: Hs-578T
K562 = test system: K562
A498 = test system: A498
SF-539 = test system: SF-539
MOLT-4 = test system: MOLT-4

## CC(CSC(=N)N)C(N)=O (stereo not drawn)
MDA-N
  GI50: > 100 µM (inactive)
SNB-75
  GI50: > 100 µM (inactive)
UACC-257
  GI50: > 100 µM (inactive)
786-0
  GI50: > 100 µM (inactive)
UACC-62
  GI50: > 100 µM (inactive)
BT-549
  GI50: > 100 µM (inactive)
T47D
  GI50: > 100 µM (inactive)
COLO 205
  GI50: > 100 µM (inactive)
SK-MEL-5
  GI50: > 100 µM (inactive)
HOP-62
  GI50: > 100 µM (inactive)
MCF7
  GI50: > 100 µM (inactive)
LOX IMVI
  GI50: > 100 µM (inactive)
SN12C
  GI50: > 100 µM (inactive)
MDA-MB-231
  GI50: > 100 µM (inactive)
CAKI-1
  GI50: > 100 µM (inactive)
SK-MEL-28
  GI50: > 100 µM (inactive)
HCT-116
  GI50: > 100 µM (inactive)
OVCAR-3
  GI50: > 100 µM (inactive)
NCI-H522
  GI50: > 100 µM (inactive)
SF-295
  GI50: > 100 µM (inactive)
HT-29
  GI50: > 100 µM (inactive)
NCI-H23
  GI50: > 100 µM (inactive)
Malme-3M
  GI50: > 100 µM (inactive)
M14
  GI50: > 100 µM (inactive)
A549
  GI50: > 100 µM (inactive)
SW-620
  GI50: > 100 µM (inactive)
CCRF-CEM
  GI50: > 100 µM (inactive)
UO-31
  GI50: > 100 µM (inactive)
MDA-MB-435
  GI50: > 100 µM (inactive)
OVCAR-4
  GI50: > 100 µM (inactive)
SR
  GI50: > 100 µM (inactive)
HCC 2998
  GI50: > 100 µM (inactive)
EKVX
  GI50: > 100 µM (inactive)
SF-268
  GI50: > 100 µM (inactive)
SK-MEL-2
  GI50: > 100 µM (inactive)
KM12
  GI50: > 100 µM (inactive)
PC-3
  GI50: > 100 µM (inactive)
U-251
  GI50: > 100 µM (inactive)
NCI-H226
  GI50: > 100 µM (inactive)
OVCAR-5
  GI50: > 100 µM (inactive)
HL-60
  GI50: > 100 µM (inactive)
TK-10
  GI50: > 100 µM (inactive)
IGROV-1
  GI50: > 100 µM (inactive)
NCI/ADR-RES
  GI50: > 100 µM (inactive)
RXF 393
  GI50: > 100 µM (inactive)
SNB-19
  GI50: > 100 µM (inactive)
ACHN
  GI50: > 100 µM (inactive)
HOP-92
  GI50: > 100 µM (inactive)
SK-OV-3
  GI50: > 100 µM (inactive)
OVCAR-8
  GI50: > 100 µM (inactive)
HCT-15
  GI50: > 100 µM
RPMI-8226
  GI50: > 100 µM (inactive)
DU-145
  GI50: > 100 µM (inactive)
NCI-H460
  GI50: > 100 µM (inactive)
Hs-578T
  GI50: > 100 µM (inactive)
K562
  GI50: > 100 µM (inactive)
A498
  GI50: > 100 µM (inactive)

## COc1cc2c(cc1O)[C@]1(Cc3ccc4c(c3C1=O)OCO4)N(C)CC2
MDA-N
  GI50: > 100 µM (inactive)
SNB-75
  GI50: 73.5 µM (inactive)
UACC-257
  GI50: > 100 µM (inactive)
786-0
  GI50: > 100 µM (inactive)
UACC-62
  GI50: > 100 µM (inactive)
BT-549
  GI50: > 100 µM (inactive)
T47D
  GI50: > 100 µM (inactive)
COLO 205
  GI50: > 100 µM (inactive)
SK-MEL-5
  GI50: > 100 µM (inactive)
HOP-62
  GI50: > 100 µM (inactive)
MCF7
  GI50: > 100 µM (inactive)
SN12C
  GI50: > 100 µM (inactive)
MDA-MB-231
  GI50: > 100 µM (inactive)
CAKI-1
  GI50: > 100 µM (inactive)
SK-MEL-28
  GI50: > 100 µM (inactive)
HCT-116
  GI50: > 100 µM (inactive)
OVCAR-3
  GI50: > 100 µM (inactive)
NCI-H522
  GI50: > 100 µM (inactive)
SF-295
  GI50: > 100 µM (inactive)
HT-29
  GI50: > 100 µM (inactive)
NCI-H23
  GI50: > 100 µM (inactive)
Malme-3M
  GI50: > 100 µM (inactive)
M14
  GI50: > 100 µM (inactive)
A549
  GI50: > 100 µM (inactive)
SW-620
  GI50: > 100 µM (inactive)
CCRF-CEM
  GI50: > 100 µM (inactive)
UO-31
  GI50: > 100 µM (inactive)
MDA-MB-435
  GI50: > 100 µM (inactive)
OVCAR-4
  GI50: > 100 µM (inactive)
SF-539
  GI50: > 100 µM (inactive)
SR
  GI50: > 100 µM (inactive)
HCC 2998
  GI50: > 100 µM (inactive)
EKVX
  GI50: > 100 µM (inactive)
SF-268
  GI50: > 100 µM (inactive)
SK-MEL-2
  GI50: > 100 µM (inactive)
KM12
  GI50: > 100 µM (inactive)
PC-3
  GI50: > 100 µM (inactive)
U-251
  GI50: > 100 µM (inactive)
NCI-H226
  GI50: > 100 µM (inactive)
OVCAR-5
  GI50: > 100 µM (inactive)
HL-60
  GI50: > 100 µM (inactive)
TK-10
  GI50: > 100 µM (inactive)
IGROV-1
  GI50: > 100 µM (inactive)
NCI/ADR-RES
  GI50: > 100 µM (inactive)
RXF 393
  GI50: > 100 µM (inactive)
SNB-19
  GI50: > 100 µM (inactive)
ACHN
  GI50: > 100 µM (inactive)
HOP-92
  GI50: > 100 µM (inactive)
SK-OV-3
  GI50: > 100 µM (inactive)
OVCAR-8
  GI50: > 100 µM (inactive)
HCT-15
  GI50: > 100 µM
RPMI-8226
  GI50: > 100 µM (inactive)
DU-145
  GI50: > 100 µM (inactive)
NCI-H460
  GI50: > 100 µM (inactive)
MOLT-4
  GI50: > 100 µM (inactive)
Hs-578T
  GI50: > 100 µM (inactive)
K562
  GI50: > 100 µM (inactive)
A498
  GI50: > 100 µM (inactive)

## CCOC(=O)CNC1=NNS(=O)(=O)c2ccccc21
MDA-N
  GI50: > 100 µM (inactive)
SNB-75
  GI50: > 100 µM (inactive)
UACC-257
  GI50: > 100 µM (inactive)
786-0
  GI50: > 100 µM (inactive)
UACC-62
  GI50: > 100 µM (inactive)
BT-549
  GI50: > 100 µM (inactive)
T47D
  GI50: > 100 µM (inactive)
COLO 205
  GI50: > 100 µM (inactive)
SK-MEL-5
  GI50: > 100 µM (inactive)
HOP-62
  GI50: > 100 µM (inactive)
MCF7
  GI50: > 100 µM (inactive)
LOX IMVI
  GI50: > 100 µM (inactive)
SN12C
  GI50: > 100 µM (inactive)
MDA-MB-231
  GI50: > 100 µM (inactive)
CAKI-1
  GI50: > 100 µM (inactive)
SK-MEL-28
  GI50: > 100 µM (inactive)
HCT-116
  GI50: > 100 µM (inactive)
OVCAR-3
  GI50: > 100 µM (inactive)
NCI-H522
  GI50: > 100 µM (inactive)
SF-295
  GI50: > 100 µM (inactive)
HT-29
  GI50: > 100 µM (inactive)
NCI-H23
  GI50: > 100 µM (inactive)
Malme-3M
  GI50: > 100 µM (inactive)
M14
  GI50: > 100 µM (inactive)
A549
  GI50: > 100 µM (inactive)
SW-620
  GI50: > 100 µM (inactive)
CCRF-CEM
  GI50: 59.8 µM (inactive)
UO-31
  GI50: > 100 µM (inactive)
MDA-MB-435
  GI50: > 100 µM (inactive)
OVCAR-4
  GI50: > 100 µM (inactive)
SF-539
  GI50: > 100 µM (inactive)
SR
  GI50: 97.1 µM (inactive)
HCC 2998
  GI50: > 100 µM (inactive)
EKVX
  GI50: > 100 µM (inactive)
SF-268
  GI50: > 100 µM (inactive)
KM12
  GI50: > 100 µM (inactive)
PC-3
  GI50: > 100 µM (inactive)
U-251
  GI50: > 100 µM (inactive)
NCI-H226
  GI50: > 100 µM (inactive)
OVCAR-5
  GI50: > 100 µM (inactive)
HL-60
  GI50: 66.5 µM (inactive)
TK-10
  GI50: > 100 µM (inactive)
IGROV-1
  GI50: > 100 µM (inactive)
NCI/ADR-RES
  GI50: > 100 µM (inactive)
RXF 393
  GI50: > 100 µM (inactive)
SNB-19
  GI50: > 100 µM (inactive)
ACHN
  GI50: > 100 µM (inactive)
HOP-92
  GI50: > 100 µM (inactive)
SK-OV-3
  GI50: > 100 µM (inactive)
OVCAR-8
  GI50: > 100 µM (inactive)
HCT-15
  GI50: > 100 µM
RPMI-8226
  GI50: > 100 µM (inactive)
DU-145
  GI50: > 100 µM (inactive)
NCI-H460
  GI50: 32.6 µM (inactive)
MOLT-4
  GI50: 54.1 µM (inactive)
Hs-578T
  GI50: > 100 µM (inactive)
K562
  GI50: > 100 µM (inactive)
A498
  GI50: 20.8 µM (inactive)
